Series [1] has as its target T1, recombinant M^pro of SARS-CoV-2 (Severe acute respiratory syndrome coronavirus 2, UniProt P0DTD1).
T1 construct: This main protease is located in nsp5; purchased Bio-Techne
The series is described as follows: biochemical. Type of series: binding.

For the next series, the system named is hepatitis C virus (HCV). To be noted: chronic HCV infection; oral doses of 0.05 and 0.10 mg/kg/d; cited from earlier work.
The target of the next series is MERS-CoV M^pro (Middle East respiratory syndrome-related coronavirus, UniProt K9N7C7). Nature of the series: biochemical. To be noted: for inhibition at 100 µM: read-out: MERS-CoV M^pro activity inhibited to.
MERS-CoV M^pro, sequence (K9N7C7 3248-3553 limits assumed): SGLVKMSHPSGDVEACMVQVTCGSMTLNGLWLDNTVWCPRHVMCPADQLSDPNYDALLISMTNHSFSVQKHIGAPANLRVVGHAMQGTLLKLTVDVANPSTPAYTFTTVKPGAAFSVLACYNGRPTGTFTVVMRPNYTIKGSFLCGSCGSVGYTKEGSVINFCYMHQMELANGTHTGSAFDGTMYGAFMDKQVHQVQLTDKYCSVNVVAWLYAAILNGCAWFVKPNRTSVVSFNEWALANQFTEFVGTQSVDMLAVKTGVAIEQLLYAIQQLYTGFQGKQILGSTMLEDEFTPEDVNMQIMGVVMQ
Series [2] relates to human immunodeficiency virus (HIV). The conditions noted are these: orally administered, 0.5 mg/kg daily; limited number of patients; cited from earlier work.
Series [3] can be described thus: Resazurin cell viability assay. To be noted: human, MRC-5 lung fibroblasts. (In general: Resazurin is reduced to fluorescent resorufin, in cell work by metabolically active cells.)
The test system of series [4] is human diploid MRC-5 lung fibroblasts. The series is described as follows: Resazurin cell viability assay. To be noted: MRC-5; tested range 0.3–100 µM; 72 h.
The next series addresses SARS-CoV-1 M^pro (Severe acute respiratory syndrome coronavirus, UniProt P0C6X7). Nature of the series: biochemical. To be noted: for inhibition at 100 µM: read-out: Inhibition of enzymatic activity.
The target of another series is T2, SARS-CoV-2 M^pro (Severe acute respiratory syndrome coronavirus 2, UniProt P0DTD1).
T2 construct: This main protease is located in nsp5; purchased AnaSpec
The series is described as follows: biochemical. The conditions noted are these: for inhibition at 100 µM: read-out: Inhibition of enzymatic activity.

The target in series [5] is recombinant M^pro of SARS-CoV-1 (Severe acute respiratory syndrome coronavirus, UniProt P0C6X7). The series is described as follows: biochemical. The series is classed as binding.
For series [6], the target named is recombinant M^pro of MERS-CoV (Middle East respiratory syndrome-related coronavirus, UniProt K9N7C7). Nature of the series: biochemical. The series is classed as binding.
recombinant M^pro of MERS-CoV, sequence (K9N7C7 3248-3553 limits assumed): as above
A further series relates to SARS-CoV-2. The conditions noted are these: cited from earlier work.

Structures are written as SMILES. Entries after “also recorded” stand apart in the source; their conditions may differ.

By Kd is commonly meant the free concentration of one partner at which half of the binding sites on the other are occupied at equilibrium, for simple one-to-one binding. By IC50 is commonly meant the concentration at which inhibition is half-maximal. A word on the CC50: it is the concentration at which the toxic effect on the cells reaches its halfway point. A low value points to harm at low concentration.

Regarding `Cc1cc(O)c2c(=O)c3c(O)cc(O)c4c5c(O)cc(O)c6c(=O)c7c(O)cc(C)c8c1c2c(c34)c(c78)c65` [Hypericin], the Kd stood at 7.73 ± 6.5 µM in series [1], 25.5 ± 13.6 µM in series [5] and 54.9 ± 13.8 µM in [6]. In addition, the “Anti-HCV activity in patients” value with hepatitis C virus (HCV) is given as “without detectable anti-HCV activity”. Moreover, the values for the 50% inhibitory concentration (IC50) against MERS-CoV M^pro, at SARS-CoV-1 M^pro and at SARS-CoV-2 M^pro were 49.7 ± 5.41 µM, 19.4 ± 3.11 µM and 23.3 ± 1.21 µM, respectively. The “Therapeutic Index” value on MERS-CoV M^pro came to 1.11; on SARS-CoV-1 M^pro it was 2.85; on SARS-CoV-2 M^pro it was 2.38. In addition, the “Antiretroviral activity in clinical trial” value in [2] is “without antiretroviral activity”. For the same compound, the midpoint of cytotoxicity in [3], the CC50 at 72 h, lay at 55.5 ± 2.2 µM. The “Inhibitory effect on cell viability” value in [4] is listed as “slight toxicity”. In addition, the “Percentage of activity of SARS-CoV-2 M^pro in the presence of compound” value (from here on “Percentage”) at SARS-CoV-2 M^pro was 4.95%. In addition, the inhibition at 100 µM at SARS-CoV-2 M^pro was greater than 50%.

Turning to `COc1cc(-c2oc3cc(O)cc(O)c3c(=O)c2O)ccc1O` [Isorhamnetin], the Kd in [1] came out at 4.37 ± 3.9 µM. The inhibition at 100 µM at MERS-CoV M^pro is 26.3%. This compound also yielded a CC50 at 72 h in series [3] of 36.8 ± 3.4 µM. Further, the “Inhibitory effect on cell viability” value in series [4] was “slight toxicity”. Further, at SARS-CoV-1 M^pro, inhibition was half-maximal at 13.1 ± 1.78 µM (IC50) and the “Therapeutic Index” value is 2.8. For the same compound, at SARS-CoV-2 M^pro, the concentration for half-maximal inhibition (IC50) came out at 8.42 ± 1.15 µM, the “Percentage” value stood at 8.56%, the “Therapeutic Index” value was found to be 4.37 and the inhibition at 100 µM is greater than 50%. Besides, the dissociation constant (Kd) in [5] was 3.6 ± 2.6 µM.

As for `O=c1cc(-c2ccc(O)c(O)c2)oc2cc(O)cc(O)c12` [Luteolin], in series [1], the Kd worked out at 13.4 ± 2.7 µM. Besides, the figures for the inhibition at 100 µM on MERS-CoV M^pro, at SARS-CoV-1 M^pro and at SARS-CoV-2 M^pro were 21.3%, 44% and greater than 50%, respectively. On SARS-CoV-2 M^pro, this compound showed an IC50 of 11.8 ± 1.27 µM. Also, the “Percentage” value at SARS-CoV-2 M^pro is 10.10%.

In the case of `O=C(/C=C/c1ccc(O)c(O)c1)O[C@H](Cc1ccc(O)c(O)c1)C(=O)O` [Rosmarinic acid], in series [1], the equilibrium dissociation constant (Kd) came out at 15.5 ± 4.77 µM. In addition, the “IC50 value, inhibition of SARS-CoV-2 replication” value in the series with SARS-CoV-2 was 25.47 µg/mL. Besides, at MERS-CoV M^pro, the inhibition at 100 µM was 14.9%. The “Inhibitory effect on cell viability” value in series [4] is “did not show significant inhibitory effects; also recorded: did not inhibit”. Besides, the inhibition at 100 µM at SARS-CoV-1 M^pro came to 31%. Further, on SARS-CoV-2 M^pro, the half-inhibitory concentration (IC50) was 9.43 ± 0.46 µM, the “Percentage” value was determined as 8.28% and the inhibition at 100 µM was greater than 50%.

Source of the values: article PMC8952009 (Pharmaceuticals, 2022).
